Key:
ERK = experiment: Western blot, phosphorylation status of ERK in hippocampal tissues; type: in vivo; details: PND7 mice; BAY 60-7550 3 mg/kg 30 min, molsidomine 4 mg/kg 30 min
Method: PND7 mice were exposed to isoflurane (1.5% ISO in 02, 4 hr), control gas (100% O2, 4 hr), PDE inhibitor (BAY 60-7550, 3 mg/kg, 30 min), or NO donor (molsidomine, 4 mg/kg, 30 min), we harvested hippocampal tissues for Western blotting to assess the phosphorylation status of ERK.

neuron cultures = experiment: Neuron cultures, synapses (PSD95/Synaptophysin puncta) at DIV14; type: cell-based; details: DETA 150 μM and ODQ 100 μM for 4 hrs right before exposure to gases at DIV7
Method: Neuron cultures were transfected with GFP-AAV virus at DIV-4 and were exposed to NO donor (DETA) 150 μM and sGC inhibitor (ODQ) 100 μM for 4 hrs right before exposure to gases at DIV7. Cells were returned back to incubator with half media change every second day. At DIV14, cells were fixed and stained with PSD95 and Synaptophysin. […] Scale bar is 5 μm. FIG. 23B: Synapse were analyzed using puncta analyzer plugin as shown in methods section.

primary neuron cultures = experiment: Primary neuron cultures, long thin spines and filopodia at DIV7; type: cell-based; details: for effect on PDZ2WT-induced loss of long thin spines and filopodia at DIV7: PDZ2WT peptide 1 μM 4 hrs; for effect on PDZ2WT-induced loss of long thin spines and filopodia at DIV7 / effect on isoflurane-induced loss of long thin spines and filopodia at DIV7: DETA NONOate 150 μM, ODQ 100 μM added to NO donor; for effect on isoflurane-induced loss of long thin spines and filopodia at DIV7: isoflurane 1.5% 4 hrs
Method: Primary neuron cultures were exposed to control gas (25% O2, 5% CO2, bal N2), isoflurane (1.5% ISO in 25% O2, 5% CO2, bal N2), DETA NONOate NO donor 150 μM and sGC inhibitor ODQ 100 μM for 4 hrs. […] MAP2 dendrite marker, green. Drebrin A/E immature spine/filopodia marker, red. Scale bar is 5 μm. FIG. 20B, Density of long thin spines and filopodia at DIV7 among exposed groups analyzed using Imaris 93.1;
MAP2, green. Drebrin, red. Scale bar is 5 μm. FIG. 21B, show the density of long thin spines and filopodia among exposed groups;
Neuron cultures were exposed to control gas (25% O2, 5% CO2, balance N2) or sevoflurane (2.1% ISO in 25% O2, 5% CO2, balanced N2) for 4 hrs. […] Scale bar is 5 μm. FIG. 22B, Density of long thin spines and filopodia among exposed groups; and […]

[1] = system: PSD-95 or PSD-93 and the NMDA receptor or nNOS; details: clinically relevant concentrations; Fang et al., 2003; Tao et al., 2015; cited from earlier work
C57BL6 mice = experiment: Novel object recognition at PND21; type: in vivo; details: molsidomine 4 mg/kg ip after PND7 exposure, PND21
Method: 1.3.2 Anesthesia, Peptide, and Molsidomine Injections. PND7 control and experimental mice were placed in a clear plastic cone and body temperature maintained by a heating blanket set to 35° C. Vital signs and physiological monitoring were assessed using PhysioSuite® (Kent Scientific Corporation, Torrington, Conn., USA) and blood gasses were collected arterially. […] Note that lower concentrations of 02 can be used, e.g., between 20% to 100% 02, including 20%, 25%, 30%, 35%, 40%, 45%, 50%, 55%, 60%, 65%, 70%, 75%, 80%, 85%, 90%, 95%, 96%, 97%, 98%, 99%, and 100% 02. Naïve animals were left with the dams. Anesthesia was initiated with 2.4% ISO in 100% oxygen for 2 min and tapered down to 1.5% within 15 min. Exposure to 1.5% ISO was continued for 3 hours and 45 min (total 4 hours ISO). Control ‘CON’ animals were exposed to 100% oxygen only. At the end of the exposure animals were maintained in oxygen on the heating blanket for 10 min then returned to dams. […] Tao and Johns, 2008. A single injection of peptide was given ip. Separate peptide cohorts were injected in parallel with mice undergoing exposure to anesthesia or O2 control. Purification of fusion peptides was performed by Creative BioMart (Shirley, N.Y.) and verified by Coomassie blue staining and Western blot analysis and then stored in 10% glycerol/phosphate buffered saline at −80° C. until use. The Tat-PSD-95 PDZ2WT and MUT plasmids used to generate proteins containing an amino-terminal, in-frame, 11-amino-acid, minimal transduction domain (residues 47-57 of human immunodeficiency virus Tat protein) termed Tat. […] Fang et al., 2003. The NO donor molsidomine [(N-[ethoxycarbonyl]-3-[4-morpholinosydnomine] (Sigma, St. Louis, Mo.) was injected at 4 mg/kg into mice ip in 100 μL sterile saline as previously described. The NO donor was added immediately following cessation of anesthesia or control (O2) exposure, i.e., the NO donor was injected 4 hours after onset of anesthesia. One of ordinary skill in the art upon review of the present disclosure would appreciate that the NO donor could be administered at other times during anesthesia, including at the onset of anesthesia. Control animals were injected ip with the vehicle (saline).
1.3.7 Novel Object Recognition. The novel object recognition (NOR) procedure was based upon the original Ennaceur et al., 1988, procedure and was used to assess nonspatial hippocampal memory. Clark et al., 2000; Baker and Kim, 2002; Reger et al., 2009. It consisted of a training ‘familiarization’ phase followed by a testing phase. During training, mice were allowed to freely explore within an opaque box (40 cm W×40 cm L×34 cm H) containing two identical objects for 10 min. Data were recorded with a video camera and time spent with each object was recorded using ANYmaze software (Stoelting). Object investigation time was determined by the amount of time the mouse spent in the zone immediately surrounding the object. […] After 2 h, object recognition was tested, using the same procedure as in training except that a novel object was substituted for one of the familiar training objects and mice were allowed to explore for 5 min. Mice inherently prefer to explore novel objects; thus, a preference for the novel object indicates intact memory for the familiar object.

[2] = system: hippocampal dendritic mushroom spines (dentate gyrus); type: in vivo, mice; details: molsidomine 4 mg/kg ip after PND7 exposure, PND49
Method: PND7 control and experimental mice were placed in a clear plastic cone and body temperature maintained by a heating blanket set to 35° C. Heart rate (HR) and oxyhemoglobin saturation (SpO2) were continuously monitored using pulse-oximetry (PhysioSuite, Kent Scientific). Arterial blood was collected by terminal cardiac puncture of the left ventricle from sentinels and pH (pHa) determined using a blood gas machine (ABL800 FLEX Series Radiometer). […] Naïve control animals were left with the dams. Control ‘CON’ animals were exposed to oxygen only. Anesthesia was initiated with 2.4% isoflurane in oxygen for 2 min and tapered down to 1.5% within 15 min. Exposure to 1.5% isoflurane was continued for 3 hours and 45 min (total 4 hours ISO). At the end of the exposure animals were maintained in oxygen on the heating blanket for 10 min then returned to dams. […] Tao and Johns, 2008. Purification of fusion peptides was performed by Creative BioMart (Shirley, N.Y.) and verified by Coomassie blue staining and Western blot analysis and then stored in 10% glycerol/phosphate-buffered saline at −80° C. until use. The Tat-PSD-95 PDZ2WT and MUT plasmids used to generate proteins containing an amino-terminal, in-frame, 11-amino-acid, minimal transduction domain (residues 47-57 of human immunodeficiency virus Tat protein) termed Tat. […] Fang et al., 2003. […]

[3] = system: hippocampal CA1 LTP (Schaffer collateral pathway); experiment: Extracellular field-potential recordings, LTP in hippocampal slices at PND21; type: in vivo, mice; details: molsidomine 4 mg/kg ip after PND7 exposure
Method: 1.3.2 Anesthesia, Peptide, and Molsidomine Injections. PND7 control and experimental mice were placed in a clear plastic cone and body temperature maintained by a heating blanket set to 35° C. Vital signs and physiological monitoring were assessed using PhysioSuite® (Kent Scientific Corporation, Torrington, Conn., USA) and blood gasses were collected arterially. […] Note that lower concentrations of 02 can be used, e.g., between 20% to 100% 02, including 20%, 25%, 30%, 35%, 40%, 45%, 50%, 55%, 60%, 65%, 70%, 75%, 80%, 85%, 90%, 95%, 96%, 97%, 98%, 99%, and 100% 02. Naïve animals were left with the dams. Anesthesia was initiated with 2.4% ISO in 100% oxygen for 2 min and tapered down to 1.5% within 15 min. Exposure to 1.5% ISO was continued for 3 hours and 45 min (total 4 hours ISO). Control ‘CON’ animals were exposed to 100% oxygen only. At the end of the exposure animals were maintained in oxygen on the heating blanket for 10 min then returned to dams. […] Tao and Johns, 2008. A single injection of peptide was given ip. […]
1.3.6.2. […] Synaptic responses were recorded using a MultiClamp 700B amplifier, and the signal was digitized with Digidita 1440A, analyzed with pClamp10 and stored on a personal computer. […] Measurements of the fEPSP slopes were made during the rising phase (5-50% of the peak) and the values normalized to the mean values recorded in 20-min baseline. […]

Row | Structure (SMILES) | amount of pERK (ERK) | effect on isoflurane-induced loss of synapses at DIV14 (neuron cultures) | effect on PDZ2WT-induced loss of long thin spines and filopodia at DIV7 (primary neuron cultures) | effect on isoflurane-induced loss of long thin spines and filopodia at DIV7 (primary neuron cultures) | PDZ domain-mediated protein interactions [1] | other results
1 | COc1ccc(Cc2nn3c([C@@H](CCCc4ccccc4)[C@@H](C)O)nc(C)c3c(=O)[nH]2)cc1OC [BAY 60-7550] | significant increases in the amount of pERK |  |  |  |  | 
2 | NCCN(CCN)/[N+]([O-])=N/O [DETA NONOate] |  | prevented loss of synapses | prevented loss of immature spines | prevented loss of immature spines |  | 
3 | O=c1onc2cnc3ccccc3n12 [ODQ] |  | blocked the prevention with DETA | blocked the prevention with NO donor | blocked the prevention with NO donor |  | 
4 | FC(F)(F)C(Cl)Br (centres unmarked) [halothane, 2-bromo-2-chloro-1,1,1-trifluoroethane] |  |  |  |  | can disrupt PDZ domain-mediated protein-protein interactions in vitro and in vivo | 
5 | CCOC(=O)Nc1c[n+](N2CCOCC2)no1 [molsidomine, N-ethoxycarbonyl-3-morpholinosydnonimine] | significant increases in the amount of pERK |  |  |  |  | effect of NO donor on impairment in recognition memory caused by ISO or PDZ2WT peptide (C57BL6 mice): prevents impairment in LTP and recognition memory; effect of NO donor on decrease in mushroom spine density caused by isoflurane or PDZ2WT peptide [2]: prevents the decrease in mushroom spine density; effect of NO donor on impairment in LTP caused by ISO or PDZ2WT peptide [3]: prevents impairment in LTP and recognition memory
6 | FCOC(C(F)(F)F)C(F)(F)F [sevoflurane, 1,1,1,3,3,3-hexafluoro-2-(fluoromethoxy)propane] |  |  |  |  | can disrupt PDZ domain-mediated protein-protein interactions in vitro and in vivo | long thin spines and filopodia at DIV7 after exposure (primary neuron cultures; 4 hrs: isoflurane 1.5%, PDZ2WT peptide 1 μM or sevoflurane 2.1%): loss of filopodia
